Measurements reported in PMC5218480 (PLoS ONE, 2017).

System: MV-4-11 cells
Test: Gene expression microarray analysis (Affymetrix PrimeView) and GSEA
Type: cell-based, human
Design: RFU PODN (11730768_x_at) / Fold change /veh PODN (11730768_x_at) / RFU LINC00158 (11744669_a_at) / Fold change /veh LINC00158 (11744669_a_at) / RFU DUSP10 (11751237_a_at) / Fold change /veh DUSP10 (11751237_a_at) / RFU ID3 (11757404_x_at) / Fold change /veh ID3 (11757404_x_at) / RFU PLEKHG5 (11737974_s_at) / Fold change /veh PLEKHG5 (11737974_s_at) / RFU LRRC4B (11730491_at) / Fold change /veh LRRC4B (11730491_at) / RFU GIMAP4 (11747438_a_at) / Fold change /veh GIMAP4 (11747438_a_at) / RFU KRT8 (11758183_x_at) / Fold change /veh KRT8 (11758183_x_at) / RFU CNN1 (11734310_a_at) / Fold change /veh CNN1 (11734310_a_at) / RFU VPS37D (11726825_at) / Fold change /veh VPS37D (11726825_at) / RFU C10orf10 (11716522_x_at) / Fold change /veh C10orf10 (11716522_x_at) / RFU KIR2DL2 /// KIR2DL4 /// KIR2DL5A /// KIR2DL5B /// KIR2DS1 /// KIR2DS2 /// KIR2DS3 /// KIR2DS4 /// KIR3DL3 /// KIR3DL3 /// KIR3DS1 (11738374_at) / Fold change /veh KIR2DL2 /// KIR2DL4 /// KIR2DL5A /// KIR2DL5B /// KIR2DS1 /// KIR2DS2 /// KIR2DS3 /// KIR2DS4 /// KIR3DL3 /// KIR3DL3 /// KIR3DS1 (11738374_at) / RFU C1QL1 (11718748_at) / Fold change /veh C1QL1 (11718748_at) / RFU TMPRSS4 (11747572_a_at) / Fold change /veh TMPRSS4 (11747572_a_at) / RFU HAMP (11756126_x_at) / Fold change /veh HAMP (11756126_x_at) / RFU RNFT2 (11725882_a_at) / Fold change /veh RNFT2 (11725882_a_at) / RFU NR4A2 (11747474_a_at) / Fold change /veh NR4A2 (11747474_a_at) / RFU ABCC12 (11746883_a_at) / Fold change /veh ABCC12 (11746883_a_at) / RFU TMEM136 (11760407_x_at) / Fold change /veh TMEM136 (11760407_x_at) / RFU CLDN22 /// WWC2 (11732394_at) / Fold change /veh CLDN22 /// WWC2 (11732394_at) / RFU HLA-DPB1 (11760878_x_at) / Fold change /veh HLA-DPB1 (11760878_x_at) / RFU SPINT1 (11716480_a_at) / Fold change /veh SPINT1 (11716480_a_at) / RFU GAP43 (11754022_s_at) / Fold change /veh GAP43 (11754022_s_at) / RFU A4GNT (11735810_at) / Fold change /veh A4GNT (11735810_at) / RFU PRB3 (11715151_x_at) / Fold change /veh PRB3 (11715151_x_at) / RFU TUBB4B (11761932_at) / Fold change /veh TUBB4B (11761932_at) / RFU CAPN14 (11732068_a_at) / Fold change /veh CAPN14 (11732068_a_at) / RFU TMCC2 (11721928_a_at) / Fold change /veh TMCC2 (11721928_a_at) / RFU IRGQ (11745062_a_at) / Fold change /veh IRGQ (11745062_a_at) / RFU FAM174B (11720279_a_at) / Fold change /veh FAM174B (11720279_a_at) / RFU TMPRSS4 (11748680_a_at) / Fold change /veh TMPRSS4 (11748680_a_at) / RFU FAM212B (11763350_a_at) / Fold change /veh FAM212B (11763350_a_at) / RFU PLEKHG5 (11743358_a_at) / Fold change /veh PLEKHG5 (11743358_a_at) / RFU ZSCAN30 (11745921_a_at) / Fold change /veh ZSCAN30 (11745921_a_at) / RFU CMKLR1 (11741424_a_at) / Fold change /veh CMKLR1 (11741424_a_at) / RFU LOC101060620 /// MAPK8IP1 (11723275_at) / Fold change /veh LOC101060620 /// MAPK8IP1 (11723275_at) / RFU SPTSSB (11747773_x_at) / Fold change /veh SPTSSB (11747773_x_at) / RFU PRSS12 (11739890_at) / Fold change /veh PRSS12 (11739890_at) / RFU BIN1 (11741810_x_at) / Fold change /veh BIN1 (11741810_x_at) / RFU WNT11 (11732464_a_at) / Fold change /veh WNT11 (11732464_a_at) / RFU C10orf10 (11716521_a_at) / Fold change /veh C10orf10 (11716521_a_at) / RFU C5orf56 (11738089_at) / Fold change /veh C5orf56 (11738089_at) / RFU CYB561 (11721691_x_at) / Fold change /veh CYB561 (11721691_x_at) / RFU ANKRD19P (11752326_a_at) / Fold change /veh ANKRD19P (11752326_a_at) / RFU OR2T12 /// OR2T33 /// OR2T8 (11738714_s_at) / Fold change /veh OR2T12 /// OR2T33 /// OR2T8 (11738714_s_at) / RFU VCAN (11748164_a_at) / Fold change /veh VCAN (11748164_a_at) / RFU JSRP1 (11732532_at) / Fold change /veh JSRP1 (11732532_at) / RFU KRTAP10-11 (11738290_x_at) / Fold change /veh KRTAP10-11 (11738290_x_at) / RFU MYO3A (11730013_a_at) / Fold change /veh MYO3A (11730013_a_at) / RFU EBF3 (11725865_a_at) / Fold change /veh EBF3 (11725865_a_at) / RFU CAMK2N1 (11719241_x_at) / Fold change /veh CAMK2N1 (11719241_x_at) / RFU C5orf56 (11738088_a_at) / Fold change /veh C5orf56 (11738088_a_at) / RFU OLFML3 (11715873_a_at) / Fold change /veh OLFML3 (11715873_a_at) / RFU LOC100653217 /// NTM (11731650_a_at) / Fold change /veh LOC100653217 /// NTM (11731650_a_at) / RFU MAPK11 (11762145_a_at) / Fold change /veh MAPK11 (11762145_a_at) / RFU FIZ1 (11724087_x_at) / Fold change /veh FIZ1 (11724087_x_at) / RFU OASL (11726364_x_at) / Fold change /veh OASL (11726364_x_at) / RFU SOX15 (11748057_x_at) / Fold change /veh SOX15 (11748057_x_at) / RFU CD79A (11719716_a_at) / Fold change /veh CD79A (11719716_a_at) / RFU HIST1H1D (11736915_at) / Fold change /veh HIST1H1D (11736915_at) / RFU CASKIN2 (11723855_a_at) / Fold change /veh CASKIN2 (11723855_a_at) / RFU LOC730098 (11760151_x_at) / Fold change /veh LOC730098 (11760151_x_at) / RFU OR4N2 (11742367_at) / Fold change /veh OR4N2 (11742367_at) / RFU PRRT2 (11749266_a_at) / Fold change /veh PRRT2 (11749266_a_at) / RFU SNX32 (11753110_a_at) / Fold change /veh SNX32 (11753110_a_at) / RFU CDHR5 (11726645_a_at) / Fold change /veh CDHR5 (11726645_a_at) / RFU RCAN1 (11760418_a_at) / Fold change /veh RCAN1 (11760418_a_at) / RFU FAM167A (11723789_a_at) / Fold change /veh FAM167A (11723789_a_at) / RFU FAM26E (11764081_at) / Fold change /veh FAM26E (11764081_at) / RFU ISYNA1 (11749810_s_at) / Fold change /veh ISYNA1 (11749810_s_at) / RFU ACY1 (11761880_at) / Fold change /veh ACY1 (11761880_at) / RFU 11764098_at / Fold change /veh 11764098_at / RFU SAMD14 (11745864_x_at) / Fold change /veh SAMD14 (11745864_x_at) / RFU NPB (11741838_a_at) / Fold change /veh NPB (11741838_a_at) / RFU TMPRSS6 (11731388_a_at) / Fold change /veh TMPRSS6 (11731388_a_at) / RFU KRTAP10-2 (11738614_at) / Fold change /veh KRTAP10-2 (11738614_at) / RFU ARHGAP8 /// PRR5-ARHGAP8 (11727945_x_at) / Fold change /veh ARHGAP8 /// PRR5-ARHGAP8 (11727945_x_at) / RFU KRTAP5-7 /// NADSYN1 (11734609_at) / Fold change /veh KRTAP5-7 /// NADSYN1 (11734609_at) / RFU RASL12 (11751679_a_at) / Fold change /veh RASL12 (11751679_a_at) / RFU CDKN2B (11736163_a_at) / Fold change /veh CDKN2B (11736163_a_at) / RFU PRF1 (11729649_at) / Fold change /veh PRF1 (11729649_at) / RFU, ZNF638 /// ZNF638-IT1 / Fold change vs veh, ZNF638 /// ZNF638-IT1 / RFU, PANK3 / Fold change vs veh, PANK3 / RFU, SH3YL1 / Fold change vs veh, SH3YL1 / RFU, ZEB2 / Fold change vs veh, ZEB2 / RFU, NRIP1 / Fold change vs veh, NRIP1 / RFU, PTTG1IP / Fold change vs veh, PTTG1IP / RFU, CAPN2 / Fold change vs veh, CAPN2 / RFU, MED14 / Fold change vs veh, MED14 / RFU, SNORA58 / Fold change vs veh, SNORA58 / RFU, C1orf63 / Fold change vs veh, C1orf63 / RFU, LRRFIP1 / Fold change vs veh, LRRFIP1 / RFU, NDUFAF7 / Fold change vs veh, NDUFAF7 / RFU, SLC12A2 / Fold change vs veh, SLC12A2 / RFU, IBTK / Fold change vs veh, IBTK / RFU, ESF1 / Fold change vs veh, ESF1 / Fold change vs veh, TMEM50B / RFU, TAOK1 / Fold change vs veh, TAOK1 / RFU, ACBD3 / Fold change vs veh, ACBD3 / RFU, TMA16 / Fold change vs veh, TMA16 / RFU, RWDD3 / Fold change vs veh, RWDD3 / RFU, BCAT1 / Fold change vs veh, BCAT1 / RFU, EDEM3 / Fold change vs veh, EDEM3 / RFU, TMEM33 / Fold change vs veh, TMEM33 / RFU, WDR75 / Fold change vs veh, WDR75 / RFU, AHCTF1 / Fold change vs veh, AHCTF1 / RFU, TFRC / Fold change vs veh, TFRC / RFU, ZDHHC17 / Fold change vs veh, ZDHHC17 / RFU, NOM1 / Fold change vs veh, NOM1 / RFU, ARL8B / Fold change vs veh, ARL8B / RFU, ZBTB11 / Fold change vs veh, ZBTB11 / RFU, TAMM41 / Fold change vs veh, TAMM41 / RFU, KIAA1704 /// LOC100996395 / Fold change vs veh, KIAA1704 /// LOC100996395 / RFU, ING1 / Fold change vs veh, ING1 / RFU, TRMT61B / Fold change vs veh, TRMT61B / RFU, FUBP3 / Fold change vs veh, FUBP3 / RFU, TP53 / Fold change vs veh, TP53 / RFU, TNKS2 / Fold change vs veh, TNKS2 / RFU, ZFP14 / Fold change vs veh, ZFP14 / RFU, ACTR2 / Fold change vs veh, ACTR2 / RFU, PPP3R1 / Fold change vs veh, PPP3R1 / RFU, PIK3R1 / Fold change vs veh, PIK3R1 / RFU, HNRNPA1 / Fold change vs veh, HNRNPA1 / RFU, RNF170 / Fold change vs veh, RNF170 / RFU, ZNF28 / Fold change vs veh, ZNF28 / RFU, RNGTT / Fold change vs veh, RNGTT / RFU, OGT / Fold change vs veh, OGT / RFU, BRD1 / Fold change vs veh, BRD1 / RFU, MARS / Fold change vs veh, MARS / RFU, ZNF655 / Fold change vs veh, ZNF655 / RFU, FAHD1 / Fold change vs veh, FAHD1 / RFU, BDP1 / Fold change vs veh, BDP1 / RFU, LRRCC1 / Fold change vs veh, LRRCC1 / RFU, ARID1A / Fold change vs veh, ARID1A / RFU, ZNF146 / Fold change vs veh, ZNF146 / RFU, ZNF330 / Fold change vs veh, ZNF330 / RFU, GPN3 / Fold change vs veh, GPN3 / RFU, C9orf123 / Fold change vs veh, C9orf123 / RFU, N4BP2L2 / Fold change vs veh, N4BP2L2 / RFU, ARFIP1 / Fold change vs veh, ARFIP1 / RFU, FAM179B / Fold change vs veh, FAM179B / RFU, BCL10 / Fold change vs veh, BCL10 / RFU, UHRF1BP1L / Fold change vs veh, UHRF1BP1L / RFU, BET1 / Fold change vs veh, BET1 / RFU, CNOT2 / Fold change vs veh, CNOT2 / RFU, ZNF268 / Fold change vs veh, ZNF268 / Fold change vs veh, ZNF507 / RFU, DGCR2 / Fold change vs veh, DGCR2 / RFU, WDSUB1 / Fold change vs veh, WDSUB1 / Fold change vs veh, HSP90B1 /// MIR3652 / RFU, ADSS / Fold change vs veh, ADSS / RFU, GK / Fold change vs veh, GK / RFU, ZNF148 / Fold change vs veh, ZNF148 / RFU, TAF9 / Fold change vs veh, TAF9 / RFU, SLC1A5 / Fold change vs veh, SLC1A5 / RFU, SLMO2 / Fold change vs veh, SLMO2 / RFU, ABCC4 / Fold change vs veh, ABCC4 / RFU, LOC101060439 /// RAP1B / Fold change vs veh, LOC101060439 /// RAP1B / RFU, RFX7 / Fold change vs veh, RFX7 / RFU, GTPBP10 / Fold change vs veh, GTPBP10 / RFU, CNEP1R1 / Fold change vs veh, CNEP1R1 / RFU, BIVM-ERCC5 /// ERCC5 / Fold change vs veh, BIVM-ERCC5 /// ERCC5 / RFU, ILF3 / Fold change vs veh, ILF3 / RFU 11762660_at / Fold change /veh 11762660_at / RFU VCAN (11757783_s_at) / Fold change /veh VCAN (11757783_s_at) / RFU DDX43 (11728927_at) / Fold change /veh DDX43 (11728927_at) / RFU KRT8 (11758188_x_at) / Fold change /veh KRT8 (11758188_x_at) / RFU NKD1 (11759106_at) / Fold change /veh NKD1 (11759106_at) / RFU SRD5A1 (11742802_a_at) / Fold change /veh SRD5A1 (11742802_a_at) / RFU TPSAB1 /// TPSB2 (11721975_s_at) / Fold change /veh TPSAB1 /// TPSB2 (11721975_s_at) / RFU GSTM3 (11746129_a_at) / Fold change /veh GSTM3 (11746129_a_at) / RFU IL23R (11737362_x_at) / Fold change /veh IL23R (11737362_x_at) / RFU TMEM51 (11727254_a_at) / Fold change /veh TMEM51 (11727254_a_at) / RFU PIWIL2 (11732686_x_at) / Fold change /veh PIWIL2 (11732686_x_at) / RFU ORM1 (11744905_x_at) / Fold change /veh ORM1 (11744905_x_at) / RFU CCDC152 (11743942_at) / Fold change /veh CCDC152 (11743942_at) / RFU ECM1 (11717891_a_at) / Fold change /veh ECM1 (11717891_a_at) / RFU IL23R (11748794_a_at) / Fold change /veh IL23R (11748794_a_at) / RFU TNFAIP8L3 (11732012_x_at) / Fold change /veh TNFAIP8L3 (11732012_x_at) / RFU MBOAT4 (11741988_at) / Fold change /veh MBOAT4 (11741988_at) / RFU 11764193_at / Fold change /veh 11764193_at / RFU TMEM53 (11763286_at) / Fold change /veh TMEM53 (11763286_at) / RFU MAGEB2 (11727129_at) / Fold change /veh MAGEB2 (11727129_at) / RFU TMEM200A (11744735_a_at) / Fold change /veh TMEM200A (11744735_a_at) / RFU CCDC152 (11751479_a_at) / Fold change /veh CCDC152 (11751479_a_at) / RFU FAM211A (11726209_a_at) / Fold change /veh FAM211A (11726209_a_at) / RFU RGS16 (11746705_a_at) / Fold change /veh RGS16 (11746705_a_at) / RFU VCAN (11755009_s_at) / Fold change /veh VCAN (11755009_s_at) / RFU RHOB (11743442_s_at) / Fold change /veh RHOB (11743442_s_at) / RFU RGS16 (11720943_a_at) / Fold change /veh RGS16 (11720943_a_at) / RFU RGS16 (11720944_at) / Fold change /veh RGS16 (11720944_at) / RFU, VPS4B / Fold change vs veh, VPS4B / RFU, CREB1 / Fold change vs veh, CREB1 / RFU, DNAJC13 / Fold change vs veh, DNAJC13 / RFU, GNAQ / Fold change vs veh, GNAQ / RFU, CDK5R1 / Fold change vs veh, CDK5R1 / RFU, ZRANB3 / Fold change vs veh, ZRANB3 / RFU, CUL4A / Fold change vs veh, CUL4A / RFU, CCNY / Fold change vs veh, CCNY / RFU, UFL1 / Fold change vs veh, UFL1 / RFU, COG3 / Fold change vs veh, COG3 / RFU, DIAPH2 / Fold change vs veh, DIAPH2 / RFU, SKA2 / Fold change vs veh, SKA2 / RFU, AFF3 / Fold change vs veh, AFF3 / RFU, LMF1 / Fold change vs veh, LMF1 / RFU, IPO11 / Fold change vs veh, IPO11 / RFU, DFFB / Fold change vs veh, DFFB / RFU, FOXP1 / Fold change vs veh, FOXP1 / RFU, CARD8 / Fold change vs veh, CARD8 / RFU, STRN3 / Fold change vs veh, STRN3 / RFU, ADK / Fold change vs veh, ADK / RFU, RASSF2 / Fold change vs veh, RASSF2 / RFU, WIPF1 / Fold change vs veh, WIPF1 / RFU, LARP1B / Fold change vs veh, LARP1B / RFU, RASA1 / Fold change vs veh, RASA1 / RFU, RB1 / Fold change vs veh, RB1 / RFU, PPFIA1 / Fold change vs veh, PPFIA1 / RFU, MAT2A / Fold change vs veh, MAT2A / RFU, CCT5 / Fold change vs veh, CCT5 / RFU, WDR92 / Fold change vs veh, WDR92 / RFU, CUX1 / Fold change vs veh, CUX1 / RFU, TTC7A / Fold change vs veh, TTC7A / RFU, TMEM135 / Fold change vs veh, TMEM135 / RFU, DEPTOR / Fold change vs veh, DEPTOR / RFU, CPM / Fold change vs veh, CPM / RFU, DNAJB6 / Fold change vs veh, DNAJB6 / RFU, CACNA2D3 / Fold change vs veh, CACNA2D3 / RFU, DTX4 / Fold change vs veh, DTX4 / RFU, TFCP2 / Fold change vs veh, TFCP2 / RFU, GMCL1 /// GMCL1P1 / Fold change vs veh, GMCL1 /// GMCL1P1 / RFU, AEBP2 / Fold change vs veh, AEBP2 / RFU, SNHG1 /// SNORD22 /// SNORD25 /// SNORD26 /// SNORD27 /// SNORD28 /// SNORD29 /// SNORD31 / Fold change vs veh, SNHG1 /// SNORD22 /// SNORD25 /// SNORD26 /// SNORD27 /// SNORD28 /// SNORD29 /// SNORD31 / Fold change (Aza/veh), C12orf56 (ProbeSet 11735607_a_at) / Fold change (ACY-1035/veh), C12orf56 (ProbeSet 11735607_a_at) / Fold change (Aza/veh), FGFR1OP (ProbeSet 11751329_s_at) / Fold change (ACY-1035/veh), FGFR1OP (ProbeSet 11751329_s_at) / Fold change (Aza/veh), VPS36 (ProbeSet 11739960_a_at) / Fold change (ACY-1035/veh), VPS36 (ProbeSet 11739960_a_at) / RFU SYPL1 (11715823_x_at) / Fold change /veh SYPL1 (11715823_x_at) / RFU IGFBP7 (11715501_s_at) / Fold change /veh IGFBP7 (11715501_s_at) / RFU REEP3 (11722064_at) / Fold change /veh REEP3 (11722064_at) / RFU IGLL1 (11728026_x_at) / Fold change /veh IGLL1 (11728026_x_at): dose or concentration left out as unconfirmed
Conditions: ProbeSet 11743580_s_at; LIST B

Nc1ccc(-c2cccs2)cc1NC(=O)c1ccc2c(c1)cc(C1CC1)n2CCN1CCOCC1 [ACY-1035]
RFU, ACTR2: 854.57 RFU
